For assay [1], the target named is T1, Tyrosine-protein phosphatase non-receptor type 1 (Homo sapiens) (UniProt P18031).
T1 sequence (whole entry): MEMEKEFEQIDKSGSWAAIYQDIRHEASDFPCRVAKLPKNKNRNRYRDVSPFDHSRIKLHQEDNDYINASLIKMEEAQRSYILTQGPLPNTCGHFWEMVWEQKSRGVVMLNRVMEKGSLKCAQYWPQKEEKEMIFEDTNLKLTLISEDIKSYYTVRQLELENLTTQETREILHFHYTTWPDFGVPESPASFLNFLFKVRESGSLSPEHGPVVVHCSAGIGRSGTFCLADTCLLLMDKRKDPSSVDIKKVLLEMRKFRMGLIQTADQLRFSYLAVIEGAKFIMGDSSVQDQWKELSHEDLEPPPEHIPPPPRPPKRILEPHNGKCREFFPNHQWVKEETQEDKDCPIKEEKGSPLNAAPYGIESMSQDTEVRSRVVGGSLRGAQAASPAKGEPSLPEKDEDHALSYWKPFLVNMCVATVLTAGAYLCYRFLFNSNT
The assay can be described thus: Inhibition of PTP1B (unknown origin) at 20 uM using pNPP as substrate by spectrophotometric analysis.

Assay [2] has as its target T1, Tyrosine-protein phosphatase non-receptor type 1 (Homo sapiens). Description: Inhibition of PTP1B (unknown origin) assessed as inhibition constant for uncompetitive inhibition using pNPP as substrate by spectrophotometric analysis.
Assay [3] has the same target. The assay can be described thus: Mixed type inhibition of PTP1B (unknown origin) using varying levels of pNPP as substrate by Lineweaver-Burk plot analysis.
A further assay deals with Rattus norvegicus. Description: Hypoglycemic activity in high fat diet-fed induced type 2 diabetic mellitus Wistar rat model assessed as blood glucose level at 60 mg/kg, ip by glucose tolerance test. Type of assay: functional.
The target of assay [4] is T2, Tyrosine-protein phosphatase non-receptor type 1 (Homo sapiens, UniProt P18031).
T2 sequence (P18031 whole entry): T1 sequence (whole entry)
The assay can be described thus: Inhibition of PTP1B (unknown origin) assessed as inhibition constant using pNPP as substrate by spectrophotometric analysis.

The target of assay [5] is T1, Tyrosine-protein phosphatase non-receptor type 1 (Homo sapiens). The assay can be described thus: Inhibition of PTP1B (unknown origin) at 40 uM using pNPP as substrate by spectrophotometric analysis.

The source of these data is ChEMBL document CHEMBL4840340, “Design, synthesis, kinetic, molecular dynamics, and hypoglycemic effect characterization of new and potential selective benzimidazole derivatives as Protein Tyrosine Phosphatase 1B inhibitors” (Bioorg Med Chem, 2021).

Usually inhibition stands for the relative decrease from the control value, in per cent. One may read the pKi as the Ki on a negative log10 scale, so that one unit is a factor of ten.

pKi: −log10 of the molar value. Activity calls are given as the source filed them. The calls are words filed in the database; no cut-off is given here.

With `O=C(CSc1nc2cc(Oc3ccc4ccccc4c3)ccc2[nH]1)Nc1nccs1`, the inhibition result in assay [1] was “inactive”.

For `O=C(CSc1nc2cc(Oc3cccc4ccccc34)ccc2[nH]1)Nc1ccccc1C(=O)O`, in assay [2], the alphaKi was 60.6 µM. The inhibition entry in assay [3] was “Active”. Moreover, in the assay on Rattus norvegicus, the Activity came out at 15%. Also, the negative logarithm of the Ki (pKi) in assay [4] was 4.63. For the same compound, in assay [5], the inhibition came to 45%.

Take `O=C(CSc1nc2cc(Oc3ccc4ccccc4c3)ccc2[nH]1)Nc1ccc(C(=O)O)cc1`: the alphaKi in assay [2] was determined as 113 µM. Besides, in assay [3], the inhibition result is “Active”. Also, the Activity in the assay on Rattus norvegicus was 23%. For the same compound, in assay [4], the pKi was 4.45. For the same compound, in assay [5], the inhibition amounted to 30%.

With `CCOC(=O)c1ccc(NC(=O)CSc2nc3cc(Oc4ccc5ccccc5c4)ccc3[nH]2)cc1`, in assay [1], the inhibition entry was “inactive”.

For the compound `O=C(CSc1nc2cc(Oc3cccc4ccccc34)ccc2[nH]1)Nc1ccc(C(=O)O)cc1`, in assay [2], the alphaKi worked out at 124 µM. Further, the inhibition entry in assay [3] was “Active”. Further, in the assay on Rattus norvegicus, the Activity was 19%. For the same compound, the pKi in assay [4] is 4.52. In assay [5], this compound displayed an inhibition of 40%.

Take `CCOC(=O)c1ccc(NC(=O)CSc2nc3cc(Oc4cccc5ccccc45)ccc3[nH]2)cc1`: in assay [1], the inhibition entry is “inactive”.

Take `CCOC(=O)c1csc(NC(=O)CSc2nc3cc(Oc4ccc5ccccc5c4)ccc3[nH]2)n1`: the inhibition entry in assay [1] is “inactive”.

On to `CCOc1cc2nc(SCC(=O)Nc3ccc(C(=O)O)cc3)[nH]c2cc1Cl`, for which the inhibition in assay [5] came out at 0%.

As for `O=C(CSc1nc2cc(Oc3ccc4ccccc4c3)c(Cl)cc2[nH]1)Nc1nccs1`, the inhibition entry in assay [1] is “inactive”.

Take `Cc1cc(NC(=O)CSc2nc3cc(Oc4ccc5ccccc5c4)ccc3[nH]2)on1`: the inhibition result in assay [1] was “inactive”.

As to `O=C(CSc1nc2cc(Oc3ccc4ccccc4c3)c(Cl)cc2[nH]1)Nc1ccc(C(=O)O)cc1`, the alphaKi in assay [2] stood at 37.8 µM. The inhibition entry in assay [3] was “Active”. For the same compound, the Activity in the assay with Rattus norvegicus was determined as 28%. For the same compound, in assay [4], the pKi is 4.90. The inhibition in assay [5] turned out to be 75%.

With `O=C(CSc1nc2cc(Oc3cccc4ccccc34)ccc2[nH]1)Nc1nccs1`, the inhibition result in assay [1] was “inactive”.
